# Reference: patent US20170000133A1, “BENZOXABOROLE FUNGICIDES” (SYNGENTA PARTICIPATIONS AG, priority 2013, published 2017)
# Test system: Plasmopara viticola
# Assay: whole plant or invertebrate
# Type: in vivo
# Details: foliar, read-out: disease control
row,SMILES,pest or weed control at 200 ppm [%]
1,O=C(OC(CF)CF)c1cc2c(cc1F)COB2O [Compound 368],≥ 80
2,O=C(OCC(F)(F)Cl)c1cc2c(cc1F)COB2O [Compound 374],≥ 80
3,CC(C#N)OC(=O)c1cc2c(cc1F)COB2O (stereo not drawn) [Compound 376],≥ 80
4,O=C(COC(=O)c1cc2c(cc1F)COB2O)c1ccccc1 [Compound 397],≥ 80
5,C#CC(OC(=O)c1cc2c(cc1F)COB2O)c1ccccc1 (stereo not drawn) [Compound 399],≥ 80
6,O=C(OCC1CCCO1)c1cc2c(cc1F)COB2O (stereo not drawn) [Compound 400],≥ 80
7,O=C(OC1CCCCC1)c1cc2c(cc1F)COB2O [Compound 417],≥ 80
8,N#CCCOC(=O)c1cc2c(cc1F)COB2O [Compound 420],≥ 80
9,O=C(OC1COC1)c1cc2c(cc1F)COB2O [Compound 425],≥ 80

# Test system: Pythium ultimum
# Assay: Pythium ultimum / liquid culture (seedling damping off)
# Type: cell-based
# Details: Globisporangium ultimum; 200 ppm; potato dextrose broth, 24° C., 2-3 days after application; read-out: disease control (inhibition of growth determined photometrically)
row,SMILES,inhibition at 200 ppm [%]
1,O=C(NCCc1c[nH]c2ccccc12)c1cc2c(cc1Cl)COB2O [Compound 97],≥ 80
2,O=C(NCc1ccccc1C(F)(F)F)c1cc2c(cc1Cl)COB2O [Compound 99],≥ 80
3,O=C(Nc1ccc(-n2cccc2)cc1)c1cc2c(cc1Cl)COB2O [Compound 125],≥ 80
4,Cc1cc(=O)oc2cc(NC(=O)c3cc4c(cc3Cl)COB4O)ccc12 [Compound 139],≥ 80
5,O=C(OC(CF)CF)c1cc2c(cc1F)COB2O [Compound 368],≥ 80
6,O=C(OCC(F)(F)Cl)c1cc2c(cc1F)COB2O [Compound 374],≥ 80
7,CC(C#N)OC(=O)c1cc2c(cc1F)COB2O (stereo not drawn) [Compound 376],≥ 80
8,O=C(COC(=O)c1cc2c(cc1F)COB2O)c1ccccc1 [Compound 397],≥ 80
9,C#CC(OC(=O)c1cc2c(cc1F)COB2O)c1ccccc1 (stereo not drawn) [Compound 399],≥ 80
10,O=C(OCC1CCCO1)c1cc2c(cc1F)COB2O (stereo not drawn) [Compound 400],≥ 80
11,O=C(OC1CCCCC1)c1cc2c(cc1F)COB2O [Compound 417],≥ 80
12,N#CCCOC(=O)c1cc2c(cc1F)COB2O [Compound 420],≥ 80
13,O=C(OC1COC1)c1cc2c(cc1F)COB2O [Compound 425],≥ 80

# Test system: Mycosphaerella graminicola (Septoria tritici)
# Assay: Mycosphaerella graminicola (Septoria tritici) / liquid culture (Septoria blotch)
# Type: cell-based
# Details: Zymoseptoria tritici, PDB potato dextrose broth, 24° C., 4-5 days after application, read-out: disease control (inhibition of growth determined photometrically)
# Protocol: 13. Mycosphaerella graminicola (Septoria tritici)/Liquid Culture (Septoria Blotch): Conidia of the fungus from cryogenic storage were directly mixed into nutrient broth (PDB potato dextrose broth). After placing a DMSO solution of test compound into a 96-well microtiter plate at an application rate of 200 ppm, the nutrient broth containing the fungal spores was added. The test plates were incubated at 24° C. and the inhibition of growth was determined photometrically 4-5 days after application.
row,SMILES,inhibition at 200 ppm [%]
1,O=C(OCC(F)(F)Cl)c1cc2c(cc1F)COB2O [Compound 374],≥ 80
2,O=C(COC(=O)c1cc2c(cc1F)COB2O)c1ccccc1 [Compound 397],≥ 80
3,C#CC(OC(=O)c1cc2c(cc1F)COB2O)c1ccccc1 (stereo not drawn) [Compound 399],≥ 80
4,O=C(OC1CCCCC1)c1cc2c(cc1F)COB2O [Compound 417],≥ 80

# Test system: Gaeumannomyces graminis
# Assay: Gaeumannomyces graminis / liquid culture (take-all of cereals)
# Type: cell-based
# Details: PDB potato dextrose broth, 24° C., 4-5 days after application, read-out: disease control (inhibition of growth determined photometrically)
# Protocol: 14. Gaeumannomyces graminis/Liquid Culture (Take-all of Cereals): Mycelial fragments of the fungus from cryogenic storage were directly mixed into nutrient broth (PDB potato dextrose broth). After placing a DMSO solution of test compound into a 96-well microtiter plate at an application rate of 200 ppm, the nutrient broth […], containing the fungal spores is added. The test plates were incubated at 24° C. and the inhibition of growth was determined photometrically 4-5 days after application.
row,SMILES,inhibition at 200 ppm [%]
1,O=C(NCCc1c[nH]c2ccccc12)c1cc2c(cc1Cl)COB2O [Compound 97],≥ 80
2,O=C(Nc1ccc(-n2cccc2)cc1)c1cc2c(cc1Cl)COB2O [Compound 125],≥ 80
3,Cc1cc(=O)oc2cc(NC(=O)c3cc4c(cc3Cl)COB4O)ccc12 [Compound 139],≥ 80
4,O=C(OCC(F)(F)Cl)c1cc2c(cc1F)COB2O [Compound 374],≥ 80
5,C#CC(OC(=O)c1cc2c(cc1F)COB2O)c1ccccc1 (stereo not drawn) [Compound 399],≥ 80
6,O=C(OC1CCCCC1)c1cc2c(cc1F)COB2O [Compound 417],≥ 80
7,O=C(OC1COC1)c1cc2c(cc1F)COB2O [Compound 425],≥ 80

# Test system: Monographella nivalis (Microdochium nivale)
# Assay: Monographella nivalis (Microdochium nivale) / liquid culture (foot rot cereals)
# Type: cell-based
# Details: PDB potato dextrose broth, 24° C., 4-5 days after application, read-out: disease control (inhibition of growth determined photometrically)
row,SMILES,inhibition at 200 ppm [%]
1,O=C(NCc1ccccc1C(F)(F)F)c1cc2c(cc1Cl)COB2O [Compound 99],≥ 80
2,O=C(OC(CF)CF)c1cc2c(cc1F)COB2O [Compound 368],≥ 80
3,O=C(OCC(F)(F)Cl)c1cc2c(cc1F)COB2O [Compound 374],≥ 80
4,O=C(COC(=O)c1cc2c(cc1F)COB2O)c1ccccc1 [Compound 397],≥ 80
5,C#CC(OC(=O)c1cc2c(cc1F)COB2O)c1ccccc1 (stereo not drawn) [Compound 399],≥ 80
6,O=C(OC1CCCCC1)c1cc2c(cc1F)COB2O [Compound 417],≥ 80

# Test system: Thanatephorus cucumeris (Rhizoctonia solani)
# Assay: Thanatephorus cucumeris (Rhizoctonia solani) / liquid culture (foot rot, damping-off)
# Type: cell-based
# Details: PDB potato dextrose broth, 24° C., 3-4 days after application, read-out: disease control (inhibition of growth determined photometrically)
# Protocol: 17. Thanatephorus cucumeris (Rhizoctonia solani)/Liquid Culture (Foot Rot, Damping-Off): Mycelia fragments of a newly grown liquid culture of the fungus were directly mixed into nutrient broth (PDB potato dextrose broth). After placing a DMSO solution of the test compounds into a 96-well microtiter plate at an application rate of 200 ppm, the nutrient broth containing the fungal material was added. The test plates were incubated at 24° C. and the inhibition of growth was determined photometrically 3-4 days after application.
row,SMILES,inhibition at 200 ppm [%]
1,O=C(OC(CF)CF)c1cc2c(cc1F)COB2O [Compound 368],≥ 80
2,O=C(OCC(F)(F)Cl)c1cc2c(cc1F)COB2O [Compound 374],≥ 80
3,O=C(COC(=O)c1cc2c(cc1F)COB2O)c1ccccc1 [Compound 397],≥ 80
4,C#CC(OC(=O)c1cc2c(cc1F)COB2O)c1ccccc1 (stereo not drawn) [Compound 399],≥ 80
5,O=C(OCC1CCCO1)c1cc2c(cc1F)COB2O (stereo not drawn) [Compound 400],≥ 80
6,O=C(OC1CCCCC1)c1cc2c(cc1F)COB2O [Compound 417],≥ 80
